Measurements as given in patent US12077503B2, “Substituted cyclic amides and their use as herbicides” (FMC CORPORATION, priority 2015, dated 2024).

Legend:
Type in all cases: in vivo
corn (Zea mays) [1] = assay: Test G Pre-Emergence Protocol; details: Zea mays, pre-emergence, 312 h, evaluated after 13 days; for plant injury at 15.625 g/ha: 15.625 g ai/ha; for plant injury at 15.625 g/ha / plant injury at 250 g/ha: read-out: Corn damage rating (100=total damage to plant; 0=no damage to plant); for plant injury at 62.5 g/ha: 62.5 g ai/ha, 100=total damage to plant, 0=no damage to plant, read-out: plant damage rating, Corn; for plant injury at 250 g/ha: 250 g ai/ha
Procedure, shortened: (§1)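 Spraying took place one day after sowing, at 15.625, 62.5 or 250 g/ha, using an acetone/water (50:50) spray solution containing 0.5% Tween 20. Plants were kept under glasshouse conditions (24/16 °C, 14 h light, 65% humidity, watered twice daily), and injury was rated 0–100 at day 13.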

[2] = system: ivy-leaved morning glory (Ipomoea hederacea); assay: Test G Pre-Emergence Protocol; details: Ipomoea, pre-emergence, 312 h, evaluated after 13 days; for pest or weed control at 62.5 g/ha: 62.5 g ai/ha, 100=total damage to plant, 0=no damage to plant, read-out: plant damage rating, Morningglory, Ivy-leaved; for pest or weed control at 250 g/ha: 250 g ai/ha, read-out: Morningglory, Ivy-leaved damage rating (100=total damage to plant; 0=no damage to plant); for pest or weed control at 15.625 g/ha: 15.625 g ai/ha, read-out: Morning-glory, Ivy-leaved damage rating (100=total damage to plant; 0=no damage to plant)
Procedure, shortened: as §1

[3] = system: giant foxtail (Setaria faberi); assay: Test G Pre-Emergence Protocol; details: Setaria faberi, pre-emergence, 312 h, evaluated after 13 days; for pest or weed control at 15.625 g/ha: 15.625 g ai/ha; for pest or weed control at 15.625 g/ha / pest or weed control at 250 g/ha: read-out: Foxtail, Giant damage rating (100=total damage to plant; 0=no damage to plant); for pest or weed control at 62.5 g/ha: 62.5 g ai/ha, 100=total damage to plant, 0=no damage to plant, read-out: plant damage rating, Foxtail, Giant; for pest or weed control at 250 g/ha: 250 g ai/ha
Procedure, shortened: as §1

corn (Zea mays) [4] = assay: Test G Post-Emergence Protocol; details: Zea mays, post-emergence, 312 h; for plant injury at 15.625 g/ha: 15.625 g ai/ha, evaluated after 13 days (100=total damage to plant; 0=no damage to plant), read-out: Corn damage rating; for plant injury at 62.5 g/ha: 62.5 g ai/ha, read-out: Corn damage rating (100=total damage to plant; 0=no damage to plant); for plant injury at 62.5 g/ha / plant injury at 250 g/ha: evaluated after 13 days; for plant injury at 250 g/ha: 250 g ai/ha, read-out: damage to plant, Corn (100=total damage to plant; 0=no damage to plant)
Procedure: (§2) Seeds of corn (Zea mays), giant foxtail (Setaria faberi), barnyardgrass (Echinochloa crus-galli), ivy-leaved morning glory (Ipomoea hederacea), redroot pigweed (Amaranthus retroflexus) and velvetleaf (Abutilon theophrasti) were sown in standard soil in pots. After cultivation for 8 days under controlled conditions in a glasshouse (at 24/16° C., day/night; 14 hours light; 65% humidity), the plants were sprayed with an aqueous spray solution derived from the formulation of the technical active ingredient in acetone/water (50:50) solution containing 0.5% Tween 20 (polyoxyethylene sorbitan monolaurate, CAS RN 9005-64-5) to give a final dose of 15.625, 62.5 or 250 g/ha of test compound.
(§3) The test plants were then grown on under controlled conditions in a glasshouse (at 24/16° C., day/night; 14 hours light; 65% humidity) and watered twice daily. After 13 days the test was evaluated (100=total damage to plant; 0=no damage to plant). A dash (-) means no test result.

[5] = system: ivy-leaved morning glory (Ipomoea hederacea); assay: Test G Post-Emergence Protocol; details: Ipomoea, post-emergence, 312 h; for pest or weed control at 15.625 g/ha: 15.625 g ai/ha, evaluated after 13 days (100=total damage to plant; 0=no damage to plant), read-out: Morningglory, Ivy-leaved damage rating; for pest or weed control at 62.5 g/ha: 62.5 g ai/ha, read-out: Morningglory, Ivy-leaved damage rating (100=total damage to plant; 0=no damage to plant); for pest or weed control at 62.5 g/ha / pest or weed control at 250 g/ha: evaluated after 13 days; for pest or weed control at 250 g/ha: 250 g ai/ha, read-out: damage to plant, Morningglory, Ivy-leaved (100=total damage to plant; 0=no damage to plant)
Procedure: as §2, §3

[6] = system: barnyardgrass (Echinochloa crus-galli); assay: Test G Post-Emergence Protocol; details: Echinochloa crus-galli, post-emergence, 312 h; for pest or weed control at 15.625 g/ha: 15.625 g ai/ha, evaluated after 13 days (100=total damage to plant; 0=no damage to plant), read-out: Barnyardgrass damage rating; for pest or weed control at 62.5 g/ha: 62.5 g ai/ha, read-out: Barnyardgrass damage rating (100=total damage to plant; 0=no damage to plant); for pest or weed control at 62.5 g/ha / pest or weed control at 250 g/ha: evaluated after 13 days; for pest or weed control at 250 g/ha: 250 g ai/ha, read-out: damage to plant, Barnyardgrass (100=total damage to plant; 0=no damage to plant)
Procedure: as §2, §3

[7] = system: velvetleaf (Abutilon theophrasti); assay: Test G Post-Emergence Protocol; details: Abutilon theophrasti, post-emergence, 312 h; for pest or weed control at 15.625 g/ha: 15.625 g ai/ha, evaluated after 13 days (100=total damage to plant; 0=no damage to plant), read-out: Velvetleaf damage rating; for pest or weed control at 62.5 g/ha: 62.5 g ai/ha, read-out: Velvetleaf damage rating (100=total damage to plant; 0=no damage to plant); for pest or weed control at 62.5 g/ha / pest or weed control at 250 g/ha: evaluated after 13 days; for pest or weed control at 250 g/ha: 250 g ai/ha, read-out: damage to plant, Velvetleaf (100=total damage to plant; 0=no damage to plant)
Procedure: as §2, §3

[8] = system: giant foxtail (Setaria faberi); assay: Test G Post-Emergence Protocol; details: Setaria faberi, post-emergence, 312 h; for pest or weed control at 15.625 g/ha: 15.625 g ai/ha, evaluated after 13 days (100=total damage to plant; 0=no damage to plant), read-out: Foxtail, Giant damage rating; for pest or weed control at 62.5 g/ha: 62.5 g ai/ha, read-out: Foxtail, Giant damage rating (100=total damage to plant; 0=no damage to plant); for pest or weed control at 62.5 g/ha / pest or weed control at 250 g/ha: evaluated after 13 days; for pest or weed control at 250 g/ha: 250 g ai/ha, read-out: damage to plant, Foxtail, Giant (100=total damage to plant; 0=no damage to plant)
Procedure: as §2, §3

[9] = system: redroot pigweed (Amaranthus retroflexus); assay: Test G Post-Emergence Protocol; details: Amaranthus retroflexus, post-emergence, 312 h; for pest or weed control at 15.625 g/ha: 15.625 g ai/ha, evaluated after 13 days (100=total damage to plant; 0=no damage to plant), read-out: Pigweed, Redroot damage rating; for pest or weed control at 62.5 g/ha: 62.5 g ai/ha, read-out: Pigweed, Redroot damage rating (100=total damage to plant; 0=no damage to plant); for pest or weed control at 62.5 g/ha / pest or weed control at 250 g/ha: evaluated after 13 days; for pest or weed control at 250 g/ha: 250 g ai/ha, read-out: damage to plant, Pigweed, Redroot (100=total damage to plant; 0=no damage to plant)
Procedure: as §2, §3

| SMILES | plant injury at 15.625 g/ha (corn (Zea mays) [1]) [%] | plant injury at 62.5 g/ha (corn (Zea mays) [1]) [%] | plant injury at 250 g/ha (corn (Zea mays) [1]) [%] | pest or weed control at 62.5 g/ha [2] [%] | pest or weed control at 250 g/ha [2] [%] | pest or weed control at 15.625 g/ha [3] [%] | pest or weed control at 62.5 g/ha [3] [%] | pest or weed control at 250 g/ha [3] [%] | plant injury at 15.625 g/ha (corn (Zea mays) [4]) [%] | plant injury at 62.5 g/ha (corn (Zea mays) [4]) [%] | plant injury at 250 g/ha (corn (Zea mays) [4]) [%] | pest or weed control at 15.625 g/ha [5] [%] | pest or weed control at 62.5 g/ha [5] [%] | pest or weed control at 250 g/ha [5] [%] | pest or weed control at 15.625 g/ha [6] [%] | pest or weed control at 62.5 g/ha [6] [%] | pest or weed control at 250 g/ha [6] [%] | pest or weed control at 15.625 g/ha [7] [%] | pest or weed control at 62.5 g/ha [7] [%] | pest or weed control at 250 g/ha [7] [%] | further results |
| --- | --- | --- | --- | --- | --- | --- | --- | --- | --- | --- | --- | --- | --- | --- | --- | --- | --- | --- | --- | --- | --- |
| CN1C[C@@H](c2ccc(C(F)(F)F)cc2)[C@H](C(=O)Nc2cnccc2C(F)(F)F)C1=O (racemic) [Compound 1401] | 0 | 10 | 20 | 0 | 20 | 40 | 70 | 90 | 0 | 0 | 50 | 0 | 0 | 30 | 0 | 20 | 50 | 0 | 20 | 30 | pest or weed control at 15.625 g/ha [8]: 0%; pest or weed control at 62.5 g/ha [8]: 60%; pest or weed control at 250 g/ha [8]: 70%; pest or weed control at 15.625 g/ha [9]: 0%; pest or weed control at 62.5 g/ha [9]: 0%; pest or weed control at 250 g/ha [9]: 30% |
| CN1C[C@H](c2cccc(C(C)(C)C#N)c2)[C@@H](C(=O)Nc2cccc(F)c2F)C1=O (racemic) [Compound 1497] | 0 | 0 | 10 | 0 | 20 | 0 | 60 | 80 | 10 | 0 | 50 | 0 | 0 | 10 | 20 | 60 | 60 | 0 | 0 | 20 | pest or weed control at 15.625 g/ha [2]: 0%; pest or weed control at 15.625 g/ha [8]: 30%; pest or weed control at 62.5 g/ha [8]: 60%; pest or weed control at 250 g/ha [8]: 60%; pest or weed control at 15.625 g/ha [9]: 0%; pest or weed control at 62.5 g/ha [9]: 0%; pest or weed control at 250 g/ha [9]: 0% |
| CN1C[C@@H](c2ccc(C(F)(F)F)cc2)[C@H](C(=O)Nc2ncc(C(F)(F)F)s2)C1=O (racemic) [Compound 1504] | 0 | 0 | 0 | 0 | 0 | 0 | 0 | 0 | 0 | 0 | 0 | 0 | 0 | 0 | 0 | 0 | 0 | 0 | 0 | 0 | pest or weed control at 15.625 g/ha [2]: 0%; pest or weed control at 15.625 g/ha [8]: 0%; pest or weed control at 62.5 g/ha [8]: 0%; pest or weed control at 250 g/ha [8]: 0%; pest or weed control at 15.625 g/ha [9]: 0%; pest or weed control at 62.5 g/ha [9]: 0%; pest or weed control at 250 g/ha [9]: 0% |
